{"source": "paper PMC11876601", "about": "(Molecular Systems Biology, 2025)", "key": {"BxPC-3": {"test_system": "BxPC-3", "assay": "cells", "parameters": "ATPlite luminescence viability of PDAC cell lines, 11-dose single-agent curves, 4-parameter fit", "details": "Homo sapiens, BXPC-3, 72 h, read-out: EC50 [nM]", "summary_of_the_method": "(§1)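 cells (1000 to 5000 per well) seeded 24 h before drug addition in a combination screen at 0.2% final DMSO. Controls were drug-free wells (negative) and 5 µM staurosporine (positive).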"}, "AsPC-1": {"test_system": "AsPC-1", "assay": "cells", "parameters": "ATPlite luminescence viability of PDAC cell lines, 11-dose single-agent curves, 4-parameter fit", "details": "Homo sapiens, ASPC1, 72 h, read-out: EC50 [nM]", "summary_of_the_method": "as §1"}, "PaTu-8988-T": {"test_system": "PaTu-8988-T", "assay": "cells", "parameters": "ATPlite luminescence viability of PDAC cell lines, 11-dose single-agent curves, 4-parameter fit", "details": "Homo sapiens, PaTu 8988t, 72 h, read-out: EC50 [nM]", "summary_of_the_method": "as §1"}, "ATR": {"molecular_target": "T1, ATR (Homo sapiens, UniProt Q13535)", "T1 construct": "endogenous in cells; host or cells: AsPC-1 lysate", "T1 sequence (Q13535 whole entry)": "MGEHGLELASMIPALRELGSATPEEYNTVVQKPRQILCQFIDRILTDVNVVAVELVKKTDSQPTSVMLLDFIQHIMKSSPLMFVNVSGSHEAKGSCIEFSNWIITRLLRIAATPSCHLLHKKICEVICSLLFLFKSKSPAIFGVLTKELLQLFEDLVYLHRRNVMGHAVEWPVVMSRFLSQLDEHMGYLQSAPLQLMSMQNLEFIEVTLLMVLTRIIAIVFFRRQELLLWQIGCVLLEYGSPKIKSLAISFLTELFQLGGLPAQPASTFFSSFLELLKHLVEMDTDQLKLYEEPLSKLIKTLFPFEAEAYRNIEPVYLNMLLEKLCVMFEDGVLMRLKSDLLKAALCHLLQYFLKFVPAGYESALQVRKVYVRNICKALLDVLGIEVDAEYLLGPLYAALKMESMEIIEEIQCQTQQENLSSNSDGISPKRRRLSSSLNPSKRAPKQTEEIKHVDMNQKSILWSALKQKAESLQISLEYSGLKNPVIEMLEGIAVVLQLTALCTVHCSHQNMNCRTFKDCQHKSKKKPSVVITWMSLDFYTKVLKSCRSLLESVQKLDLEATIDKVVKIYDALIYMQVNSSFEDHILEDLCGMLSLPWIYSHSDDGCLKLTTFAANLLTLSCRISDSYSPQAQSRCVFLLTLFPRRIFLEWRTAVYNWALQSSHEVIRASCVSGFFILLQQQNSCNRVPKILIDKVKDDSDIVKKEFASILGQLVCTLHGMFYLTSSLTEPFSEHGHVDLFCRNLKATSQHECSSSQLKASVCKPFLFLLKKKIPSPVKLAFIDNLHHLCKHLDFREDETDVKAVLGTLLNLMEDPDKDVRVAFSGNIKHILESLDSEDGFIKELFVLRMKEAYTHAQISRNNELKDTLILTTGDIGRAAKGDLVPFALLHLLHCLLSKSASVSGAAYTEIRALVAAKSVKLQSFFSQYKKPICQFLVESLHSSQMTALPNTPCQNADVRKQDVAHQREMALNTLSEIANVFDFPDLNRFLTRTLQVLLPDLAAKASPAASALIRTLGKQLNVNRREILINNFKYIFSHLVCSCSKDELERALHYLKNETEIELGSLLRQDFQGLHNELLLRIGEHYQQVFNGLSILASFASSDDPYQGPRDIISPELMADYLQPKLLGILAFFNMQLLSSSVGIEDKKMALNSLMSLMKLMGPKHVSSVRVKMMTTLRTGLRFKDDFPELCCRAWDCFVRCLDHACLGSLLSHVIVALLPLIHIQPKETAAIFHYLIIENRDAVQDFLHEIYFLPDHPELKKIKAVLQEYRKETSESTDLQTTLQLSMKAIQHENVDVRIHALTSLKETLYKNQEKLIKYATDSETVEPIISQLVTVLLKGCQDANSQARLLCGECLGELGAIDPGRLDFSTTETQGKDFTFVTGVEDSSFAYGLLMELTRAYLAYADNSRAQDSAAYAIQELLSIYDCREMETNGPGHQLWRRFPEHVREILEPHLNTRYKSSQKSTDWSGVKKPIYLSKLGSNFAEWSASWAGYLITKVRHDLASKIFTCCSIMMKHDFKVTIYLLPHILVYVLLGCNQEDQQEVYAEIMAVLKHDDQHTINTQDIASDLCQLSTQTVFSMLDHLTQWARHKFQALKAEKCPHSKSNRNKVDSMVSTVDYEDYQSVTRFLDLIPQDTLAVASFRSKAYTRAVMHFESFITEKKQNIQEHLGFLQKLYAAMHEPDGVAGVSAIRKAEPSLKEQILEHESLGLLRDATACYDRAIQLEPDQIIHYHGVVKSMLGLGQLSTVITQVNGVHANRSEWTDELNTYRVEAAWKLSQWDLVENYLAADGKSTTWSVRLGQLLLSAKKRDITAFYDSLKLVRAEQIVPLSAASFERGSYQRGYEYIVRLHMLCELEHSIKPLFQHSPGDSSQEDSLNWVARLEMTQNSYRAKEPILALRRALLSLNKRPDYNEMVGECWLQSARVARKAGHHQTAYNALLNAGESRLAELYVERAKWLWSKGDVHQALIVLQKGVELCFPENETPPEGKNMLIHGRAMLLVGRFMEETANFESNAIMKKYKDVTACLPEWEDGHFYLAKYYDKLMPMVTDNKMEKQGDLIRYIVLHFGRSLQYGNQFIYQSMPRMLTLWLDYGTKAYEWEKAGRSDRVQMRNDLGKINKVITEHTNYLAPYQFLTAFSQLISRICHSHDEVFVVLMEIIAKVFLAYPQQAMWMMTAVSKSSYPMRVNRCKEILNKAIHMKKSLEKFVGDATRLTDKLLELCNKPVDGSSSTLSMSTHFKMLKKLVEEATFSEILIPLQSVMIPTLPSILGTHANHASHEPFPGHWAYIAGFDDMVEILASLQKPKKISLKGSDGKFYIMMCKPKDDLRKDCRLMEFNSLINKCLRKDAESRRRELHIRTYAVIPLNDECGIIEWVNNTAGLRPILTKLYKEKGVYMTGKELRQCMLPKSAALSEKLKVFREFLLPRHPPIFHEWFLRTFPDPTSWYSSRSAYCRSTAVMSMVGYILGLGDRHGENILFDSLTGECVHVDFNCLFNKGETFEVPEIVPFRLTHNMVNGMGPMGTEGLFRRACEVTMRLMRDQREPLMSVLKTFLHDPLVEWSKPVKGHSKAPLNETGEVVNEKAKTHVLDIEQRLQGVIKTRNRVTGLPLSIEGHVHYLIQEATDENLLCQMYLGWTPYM", "T1 sequence (Q8WXE1 whole entry partner)": "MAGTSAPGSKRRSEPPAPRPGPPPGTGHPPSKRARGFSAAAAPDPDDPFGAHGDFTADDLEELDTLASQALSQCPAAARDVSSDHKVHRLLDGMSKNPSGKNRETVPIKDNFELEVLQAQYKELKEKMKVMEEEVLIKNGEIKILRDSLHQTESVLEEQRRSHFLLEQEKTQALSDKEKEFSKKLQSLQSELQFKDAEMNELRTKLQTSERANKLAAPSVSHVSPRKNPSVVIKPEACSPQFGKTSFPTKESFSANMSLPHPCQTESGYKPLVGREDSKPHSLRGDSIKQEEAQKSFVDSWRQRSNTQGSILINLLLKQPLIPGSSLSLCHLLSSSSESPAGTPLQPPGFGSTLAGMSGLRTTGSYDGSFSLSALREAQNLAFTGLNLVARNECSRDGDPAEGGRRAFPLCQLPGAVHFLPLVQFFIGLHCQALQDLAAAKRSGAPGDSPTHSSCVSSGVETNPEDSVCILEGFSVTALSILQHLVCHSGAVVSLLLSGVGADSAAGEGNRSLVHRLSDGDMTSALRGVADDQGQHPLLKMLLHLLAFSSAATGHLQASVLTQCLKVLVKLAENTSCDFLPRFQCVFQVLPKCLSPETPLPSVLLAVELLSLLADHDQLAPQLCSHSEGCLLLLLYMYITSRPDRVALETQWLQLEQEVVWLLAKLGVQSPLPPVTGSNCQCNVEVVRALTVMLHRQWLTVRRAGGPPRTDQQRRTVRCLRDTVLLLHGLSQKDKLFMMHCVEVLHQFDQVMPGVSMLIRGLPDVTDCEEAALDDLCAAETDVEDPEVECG", "assay": "Kinobeads competition pulldown in AsPC-1 lysate", "type": "binding", "protocol": "This was followed by incubation with Kinobeads ε (17.5 µl of settled beads) for 30 min at 4 °C to enrich kinases. […] Enriched proteins were reduced with 50 mM DTT in 8 M urea, 40 mM Tris-HCl, pH 7.4 for 30 min at room temperature, and alkylated with 55 mM chloroacetamide. After reducing the urea concentration to 1–2 M, proteins were digested with trypsin at 37 °C for 16 h. Subsequently, eluted peptides were desalted using SepPak tC18 µElution plates (Waters), freeze-dried by vacuum centrifugation, and stored at −20 °C.\nFor LC-MS/MS, dried peptides were reconstituted in 0.1% formic acid and analyzed on a Dionex Ultimate3000 nano HPLC (Thermo Scientific) coupled to an Orbitrap Fusion Tribrid mass spectrometer (Thermo Scientific), which was run in data-dependent mode. Peptides were first delivered to a trap column (100 µm × 2 cm, packed in-house with Reprosil-Gold C18 ODS-3 5 µm resin, Dr. Maisch, Ammerbuch) and subsequently washed with solvent A0 (0.1% formic acid in HPLC grade water) at 5 µl/min for 10 min. […] For MS2, up to 12 peptide precursors were isolated (isolation width of 1.2 Th) and subjected to HCD fragmentation using 30% normalized collision energy. […] The duration of dynamic exclusion was set to 30 s.\nOxidized methionine and N-terminal acetylation were set as variable modification, and cysteine carbamidomethylation was set as fixed modification. Label-free quantification (LFQ) and match-between-runs were enabled. All searches were performed with 1% PSM and protein FDR.\nProteins were filtered by potential contaminants, reversed hits and proteins identified only by site. Residual binding of proteins was calculated from LFQ intensities as the ratio between drug doses and vehicle. […] Only kinases quantified with at least 4 unique peptides in the vehicle experiment were considered. Potential targets were further curated through manual inspection of dose-dependent reduction in MS/MS and unique peptide counts."}, "TNK1": {"test_system": "TNK1", "details": "cited from earlier work"}, "FLT3": {"test_system": "FLT3", "details": "cited from earlier work"}, "PRKD2": {"test_system": "PRKD2", "details": "cited from earlier work"}, "BMP2K": {"molecular_target": "BMP2K", "details": "cited from earlier work"}, "PAK4": {"test_system": "PAK4", "details": "cited from earlier work"}, "ULK3": {"test_system": "ULK3", "details": "cited from earlier work"}, "FER": {"test_system": "FER", "details": "cited from earlier work"}, "CAMK2G": {"molecular_target": "CAMK2G", "details": "cited from earlier work"}, "CHEK1": {"test_system": "CHEK1", "details": "cited from earlier work; for Kd: read-out: KDapp"}, "MARK4": {"test_system": "MARK4", "details": "cited from earlier work"}, "STK10": {"test_system": "STK10", "details": "cited from earlier work"}, "[1]": {"details": "TNK1, 5 cell line mix lysate, Kinobeads ε, ref Reinecke et al. (2023)"}, "[2]": {"details": "FLT3, 5 cell line mix lysate, Kinobeads ε, ref Reinecke et al. (2023)"}, "[3]": {"details": "PRKD2, 5 cell line mix lysate, Kinobeads ε, ref Reinecke et al. (2023)"}, "[4]": {"details": "5 cell line mix lysate, Kinobeads ε, ref Reinecke et al. (2023), read-out: KDapp"}, "[5]": {"details": "5 cell line mix lysate, Kinobeads ε, ref Reinecke et al. (2023)"}, "[6]": {"details": "PAK4, 5 cell line mix lysate, Kinobeads ε, ref Reinecke et al. (2023)"}, "[7]": {"details": "ULK3, 5 cell line mix lysate, Kinobeads ε, ref Reinecke et al. (2023)"}, "[8]": {"details": "CHEK1, 5 cell line mix lysate, Kinobeads ε, ref Reinecke et al. (2023)"}, "[9]": {"details": "MARK4, 5 cell line mix lysate, Kinobeads ε, ref Reinecke et al. (2023)"}, "[10]": {"details": "STK10, 5 cell line mix lysate, Kinobeads ε, ref Reinecke et al. (2023)"}, "[11]": {"details": "4 cell line mix lysate, Kinobeads y, ref Klaeger et al. (2017)"}}, "note": "Where two headings read alike, the source gives them in different places.", "data": [{"smiles": "CCN1CCN(Cc2ccc(Nc3ncc(F)c(-c4cc(F)c5nc(C)n(C(C)C)c5c4)n3)nc2)CC1", "note": "[Abemaciclib]", "values": [{"measurement": "EC50", "setting": "BxPC-3", "value": 337, "unit": "nM"}, {"measurement": "EC50", "setting": "AsPC-1", "value": "> 10000", "unit": "nM"}, {"measurement": "EC50", "setting": "PaTu-8988-T", "value": 2850, "unit": "nM"}]}, {"smiles": "CNCc1ccc(-c2cc(-c3nc(-c4ccc(S(=O)(=O)C(C)C)cc4)cnc3N)on2)cc1", "note": "[Berzosertib]", "values": [{"measurement": "affinity to ATR over off-targets", "setting": "ATR; Berzosertib: vs. all except ACVR2, Elimusertib: vs. PIK3C2A, Ceralasertib: vs. CDK7", "value": "> 10", "unit": "fold"}]}, {"smiles": "COc1cc(N2CCC(N3CCN(C)CC3)CC2)ccc1Nc1ncc(Cl)c(Nc2ccccc2P(C)(C)=O)n1", "note": "[Brigatinib]", "values": [{"measurement": "EC50", "setting": "TNK1; [1]", "value": 1.59, "unit": "nM"}, {"measurement": "pKDapp", "setting": "TNK1; [1]", "value": 9.16}, {"measurement": "Kd", "setting": "TNK1; TNK1, 5 cell line mix lysate, Kinobeads ε, ref Reinecke et al. (2023), read-out: KDapp", "value": 0.69, "unit": "nM"}, {"measurement": "EC50", "setting": "FLT3; [2]", "value": 142, "unit": "nM"}, {"measurement": "pKDapp", "setting": "FLT3; [2]", "value": 7.12}, {"measurement": "Kd", "setting": "FLT3; FLT3, 5 cell line mix lysate, Kinobeads ε, ref Reinecke et al. (2023), read-out: KDapp", "value": 76.3, "unit": "nM"}, {"measurement": "EC50", "setting": "PRKD2; [3]", "value": 361, "unit": "nM"}, {"measurement": "pKDapp", "setting": "PRKD2; [3]", "value": 6.62}, {"measurement": "Kd", "setting": "PRKD2; PRKD2, 5 cell line mix lysate, Kinobeads ε, ref Reinecke et al. (2023), read-out: KDapp", "value": 238, "unit": "nM"}, {"measurement": "Kd", "setting": "BMP2K; [4]", "value": 999, "unit": "nM"}, {"measurement": "EC50", "setting": "BMP2K; [5]", "value": 1510, "unit": "nM"}, {"measurement": "pKDapp", "setting": "BMP2K; [5]", "value": 6.00}, {"measurement": "EC50", "setting": "PAK4; [6]", "value": 1190, "unit": "nM"}, {"measurement": "pKDapp", "setting": "PAK4; [6]", "value": 6.14}, {"measurement": "Kd", "setting": "PAK4; PAK4, 5 cell line mix lysate, Kinobeads ε, ref Reinecke et al. (2023), read-out: KDapp", "value": 718, "unit": "nM"}, {"measurement": "EC50", "setting": "ULK3; [7]", "value": 306, "unit": "nM"}, {"measurement": "pKDapp", "setting": "ULK3; [7]", "value": 6.86}, {"measurement": "Kd", "setting": "ULK3; ULK3, 5 cell line mix lysate, Kinobeads ε, ref Reinecke et al. (2023), read-out: KDapp", "value": 139, "unit": "nM"}, {"measurement": "EC50", "setting": "FER; [5]", "value": "[…]"}, {"measurement": "Kd", "setting": "CAMK2G; [4]", "value": 93.2, "unit": "nM"}, {"measurement": "EC50", "setting": "CAMK2G; [5]", "value": 429, "unit": "nM"}, {"measurement": "pKDapp", "setting": "CAMK2G; [5]", "value": 7.03}, {"measurement": "EC50", "setting": "CHEK1; [8]", "value": 70.5, "unit": "nM"}, {"measurement": "pKDapp", "setting": "CHEK1; [8]", "value": 7.24}, {"measurement": "Kd", "setting": "CHEK1; [8]", "value": 58.2, "unit": "nM"}, {"measurement": "Kd", "setting": "CHEK1; Kinobeads, ref Klaeger et al, 2017a, Reinecke et al, 2023a", "value": 70, "unit": "nM"}, {"measurement": "EC50", "setting": "MARK4; [9]", "value": 232, "unit": "nM"}, {"measurement": "pKDapp", "setting": "MARK4; [9]", "value": 6.71}, {"measurement": "Kd", "setting": "MARK4; MARK4, 5 cell line mix lysate, Kinobeads ε, ref Reinecke et al. (2023), read-out: KDapp", "value": 193, "unit": "nM"}, {"measurement": "EC50", "setting": "AsPC-1", "value": 272, "unit": "nM"}, {"measurement": "EC50", "setting": "STK10; [10]", "value": 310, "unit": "nM"}, {"measurement": "pKDapp", "setting": "STK10; [10]", "value": 6.55}, {"measurement": "Kd", "setting": "STK10; STK10, 5 cell line mix lysate, Kinobeads ε, ref Reinecke et al. (2023), read-out: KDapp", "value": 283, "unit": "nM"}]}, {"smiles": "Nc1nn2cc(F)cnc2c1C(=O)Nc1cncc(F)c1N1CCC(C(=O)N2CCN(C3COC3)CC2)CC1", "note": "[Gartisertib]", "values": [{"measurement": "Kd", "setting": "ATR; AsPC-1 lysate, read-out: KDapp", "value": 318, "unit": "nM"}]}, {"smiles": "C[C@]12O[C@H](C[C@]1(O)CO)n1c3ccccc3c3c4c(c5c6ccccc6n2c5c31)CNC4=O", "note": "[Lestaurtinib]", "values": [{"measurement": "EC50", "setting": "TNK1; TNK1, 4 cell line mix lysate, Kinobeads y, ref Klaeger et al. (2017)", "value": "[…]"}, {"measurement": "EC50", "setting": "FLT3; FLT3, 4 cell line mix lysate, Kinobeads y, ref Klaeger et al. (2017)", "value": "[…]"}, {"measurement": "EC50", "setting": "PRKD2; PRKD2, 4 cell line mix lysate, Kinobeads y, ref Klaeger et al. (2017)", "value": "[…]"}, {"measurement": "EC50", "setting": "BMP2K; [11]", "value": 323, "unit": "nM"}, {"measurement": "EC50", "setting": "PAK4; PAK4, 4 cell line mix lysate, Kinobeads y, ref Klaeger et al. (2017)", "value": "[…]"}, {"measurement": "EC50", "setting": "ULK3; ULK3, 4 cell line mix lysate, Kinobeads y, ref Klaeger et al. (2017)", "value": "[…]"}, {"measurement": "EC50", "setting": "FER; [11]", "value": "[…]"}, {"measurement": "EC50", "setting": "CAMK2G; [11]", "value": "[…]"}, {"measurement": "EC50", "setting": "CHEK1; CHEK1, 4 cell line mix lysate, Kinobeads y, ref Klaeger et al. (2017)", "value": "[…]"}, {"measurement": "EC50", "setting": "MARK4; MARK4, 4 cell line mix lysate, Kinobeads y, ref Klaeger et al. (2017)", "value": "[…]"}, {"measurement": "EC50", "setting": "BxPC-3", "value": 432, "unit": "nM"}, {"measurement": "EC50", "setting": "PaTu-8988-T", "value": 407, "unit": "nM"}, {"measurement": "EC50", "setting": "STK10; STK10, 4 cell line mix lysate, Kinobeads y, ref Klaeger et al. (2017)", "value": "[…]"}]}]}
